Tests used:
healthy female rats = experiment: Cage grid hang time; assay type: in vivo, rat
Protocol: Static fatigue in conscious rats was assessed by measuring the length of time that healthy female rats would hang upside down from a cage grid. Rats were trained to hang upside-down from a cage grid and the time to drop to soft padding below was recorded. Baseline hang-times were recorded for each animal (n=24) for a two week period of time. The rats were then treated with Compound A (200 ppm) in chow for two weeks while hang times were monitored daily. Finally, the rats were withdrawn from Compound A in their chow for five days while hang times were recorded daily.

healthy rats [1] = experiment: Fatigue-rotarod running time test; assay type: in vivo, rat; details: between 0.3 mg/kg and 100 mg/kg, FIG. 16
Protocol: The effect of the fast skeletal muscle troponin activator 1-(2-(((trans)-3-fluoro-1-(3-fluoropyridin-2-yl)cyclobutyl)methylamino)pyrimidin-5-yl)-1H-pyrrole-3-carboxamide (Compound C) on muscle fatigue in healthy rats was determined by a rotarod running time test. Compound C was administered to test rats at the doses between 0.3 mg/kg and 100 mg/kg (˜70 nM-28 μM). On the day of the assessment, the animals began by running at an increasing speed from 14-16 RPM over 5 minutes. Rats were then run at a constantly accelerating rate from 12 RPM to 25 RPM over the course of 10 minutes. Time to fall was recorded, with the test being terminated at 600 seconds. The plasma levels were determined at the end of the experiments (not at Cmax). The plasma levels for the indicated doses were determined to be the following: […]

healthy rats [2] = experiment: Treadmill running assay; assay type: in vivo, rat
Protocol: Male Sprague Dawley rats (Charles River), 10-12 weeks old, 250-400 g. Rats were acclimated for a minimum of 2 days and weight was measured weekly. The endurance capacity of rats was assessed using a progressive exercise test as previously described (A. Aaker et al. J Cardiovasc Pharmacol28: 353-362, 1996; B. Helwig et al. J Appl Physiol. 2003 June; 94(6):2225-36). After familiarization with the treadmill apparatus, rats were run at a treadmill speed of 30 meters per minute (m/min) with a 5% incline. Every 15 minutes, the treadmill speed was increased by 5 meters per minute and the rats continued to exercise until they reached the point of fatigue and were unable to continue exercising (FIG. 1A). Exercise time was measured in minutes while exercise distance was recorded in meters. Compound A was administered via oral gavage 2 hours prior to assessment. Each dose was formulated as a suspension containing 1% hydroxypropyl methylcellulose (HPMC), 0.2% Tween 80, and micronized Compound A, and dose volume was 5 ml/kg. Vehicle (0.2% Tween 80, 1% HPMC and water) was administered similarly.

healthy rats [3] = experiment: Rotarod running assay; assay type: in vivo, rat; details: for Run time (s) mean ± SEM: 30 minutes prior
Protocol: Female Sprague Dawley rats (210-260 g) were obtained from Charles River Laboratories and acclimated in the test facility for a minimum of six days prior to the start of the study. All rats were trained the day prior to compound administration. Training consisted of placing the rats on the rotating drum (rod), starting at a low constant speed (10 RPM). The rats were acclimated to walk on the drum for 5 minutes before resting. A second training session of an increasing speed from 14-16 RPM was initiated after all rats in the experimental group had finished the first training session. […] On the day of the experiment animals were dosed thirty minutes prior to start of test. The test began with a 5 minute primer session, whereby animals were run at an increasing speed from 14-16 RPM over 5 minutes. Rats were then run at a constantly accelerating rate from 12 RPM to 25 RPM over the course of 10 minutes. […] Time to fall was recorded, with the test being terminated at 900 seconds. Compound A was administered via oral gavage 30 minutes prior to assessment. Each dose was formulated as a suspension containing 0.2% Tween 80, 0.5% HPMC and water. Dose volume was 5 mL/kg. Vehicle (0.2% Tween 80, 0.5% HPMC and water) was administered similarly. Control treatments were chosen based on association with amelioration of central fatigue (caffeine, Davis 2003), muscular fatigue (creatine, Boyadjiev, 2007) and dual central/muscular fatigue (phosphoserine, […] 1976).

rat FDB muscle [4] = experiment: Isometric fatigue protocol in isolated rat FDB muscle; details: 5 μM
Protocol: The isometric fatigue protocol was based on published studies (Germinario et al, 2004). Isolated rat FDB muscles were incubated at 4° C. with either 0.1% DMSO Krebs buffer or buffer containing 5 μM Compound A for 30 minutes. The tissues were then transferred to an isometric force transducer at 30° C. with the same concentration of DMSO or Compound A. Muscles were stimulated via field electrodes with supra maximal voltage to tetanus (120 Hz stimulation, 1 ms pulses, 350 ms duration) every minute and the length adjusted to achieve maximal tension development (Lo) which was recorded. The stimulation frequency was adjusted to achieve 50% of maximal force for each tissue: The average stimulation frequency required to achieve FMax 50% (mean +/− sd) for 0.1% DMSO was: 32.4 +/− 3.3 Hz, and for 5 μM Compound A it was 20.5 +/− 4.9 Hz. The muscles were then stimulated every six seconds for 15 minutes with field electrodes (1 ms stimulus, 350 ms trains) which produced a rapid drop in developed force over the course of 900 seconds for both the control fibers and Compound A fibers, with the control group showing a greater and more rapid drop in tension than the Compound A group.

rat FDB muscle [5] = experiment: Isometric tension force/frequency in rat FDB muscle in vitro; details: 10 μM, FIG. 1
Protocol: Adult male Sprague-Dawley rats (Charles River) between 250 and 300 g were anesthetized with a mixture of isoflurane gas and oxygen and quickly euthanized by cardiac excision. Hind feet were quickly removed at the ankle and placed in oxygenated Krebs solution at 4° C. (composition: 1 mM NaH2PO4, 5 mM KCl, 2 mM CaCl2, 1 mM MgSO4, 137 mM NaCl, 11 mM glucose and 1 mM NaHCO3). Feet were then pinned out in fresh oxygenated Krebs buffer at room temperature and the skin from the sole of the foot removed with scissors. In rats, a small branch of the main flexor digitorum brevis (FDB) muscle extends from the heel of the foot to the little digit. This was dissected free with small scissors and the tendons at each end of the muscle were cut. The muscle was pinned out in Krebs solution and the surrounding fascia removed. Silk thread was tied with a small loop and then knotted on to the end of each tendon, creating a silk loop at each end of the muscle. This was then hooked on to the fixed lever arm and force transducer of an 801A in vitro analysis system (Aurora Scientific, Ontario, Canada) and perfused with Krebs solution at 30° C.
The effect of 10 μM of Compound A on the force/frequency relationship was measured.

[6] = 200 ppm in chow, average final three days of two week dosing
[7] = after withdrawal, average final three days of five day period
[8] = 10 mg/kg oral gavage 2 hours prior
[9] = 20 mg/kg oral gavage 2 hours prior
[10] = stimulated every six seconds for 15 minutes

C#Cc1cnc2nc(O)n(C(CC)CC)c2n1 [Compound A, 6-ethynyl-1-(pentan-3-yl)-1H-imidazo[4,5-b]pyrazin-2-ol]
grid hang time (healthy female rats; [6]): 899 ± 157 s | grid hang time compared to baseline (healthy female rats; [6]): 160±18% | grid hang time (healthy female rats; [7]): 698 ± 122 s | grid hang time, normalized performance (healthy female rats; [7]): 124±12% | running time vs vehicle controls (healthy rats [1]): significant increases | Distance (m) Mean ± SEM (healthy rats [2]; [8]): 1972 ± 176 m | Time (Min) Mean ± SEM (healthy rats [2]; [8]): 60.7 ± 4.2 min | Distance (m) Mean ± SEM (healthy rats [2]; [9]): 1943 ± 205 m | Time (Min) Mean ± SEM (healthy rats [2]; [9]): 59.4 ± 4.7 min | increase in treadmill running time over baseline (healthy rats [2]; 10 and 20 mg/kg): 20% | increase in treadmill running time over vehicle control (healthy rats [2]; 10 and 20 mg/kg): 50% | Run time (s) mean ± SEM (healthy rats [3]; 0.3 mg/kg oral gavage): 301 ± 36 s | Run time (s) mean ± SEM (healthy rats [3]; 1 mg/kg oral gavage): 334 ± 29 s | Run time (s) mean ± SEM (healthy rats [3]; 3 mg/kg oral gavage): 389 ± 65 s | change of running time (healthy rats [3]; 3 mg/kg, maximum dose tested): more than a doubling of running time | average stimulation frequency required to achieve FMax 50% (mean +/- sd) (rat FDB muscle [4]): 20.5 +/− 4.9 Hz | force at 900 seconds, % of fMax (rat FDB muscle [4]; [10]): 28.4±1.2 % f Max | force at 900 seconds, % of initial tension (rat FDB muscle [4]; [10]): 53.9±2.1 % of initial tension | sub-maximal force development (force/frequency relationship) (rat FDB muscle [5]): increased sub-maximal force development
